# Measured values reported in ChEMBL document CHEMBL4732149, “Evaluation of the cellular protection by novel spiropyrazole compounds in dopaminergic cell death” (Eur J Med Chem, 2021).
# What was measured:
# SH-SY5Y [1] = experiment: Neuroprotective activity against […]-induced cell death in human SH-SY5Y cells assessed as increase in cell viability preincubated for 1 hr followed by […] stimulation and measured after 24 hrs by MTT assay; type: functional, cell-based; settings: dose 10-50 µM, time 25.0 hrs
# SH-SY5Y [2] = experiment: Cytotoxicity against human SH-SY5Y cells assessed as reduction in cell viability at 10 to 50 uM measured after 24 hrs by MTT assay; type: cell-based; settings: dose 10-50 µM
# SH-SY5Y [3] = experiment: Neuroprotective activity against […]-induced cell death in human SH-SY5Y cells at 10 to 50 uM preincubated for 1 hr followed by […] stimulation and measured after 24 hrs by MTT assay relative to control; type: functional; settings: dose 10-50 µM, time 25 hrs
# SH-SY5Y [4] = experiment: Neuroprotective activity against […]-induced cell death in human SH-SY5Y cells assessed as cell viability at 1 uM preincubated for 1 hr followed by […] stimulation and measured after 24 hrs by MTT assay relative to control; type: functional; settings: time 25 hrs, read-out: Activity
# [5] = Cytotoxicity against human SH-SY5Y cells assessed as cell viability at 50 uM measured after 24 hrs by MTT assay relative to control; type: cell-based; settings: read-out: Activity
SMILES,Activity (SH-SY5Y [1]),Activity (SH-SY5Y [2]),Activity (SH-SY5Y [3]),viability at 1 µM (SH-SY5Y [4]),"viability at 24 h, 50 µM [5]"
NC1=NN(c2ccccc2)C(=O)C12[C@@H](c1ccccc1)c1c([nH]n(-c3ccccc3)c1=O)N[C@H]2c1ccccc1 (stereo partly drawn),Dose-dependent effect,Non-Toxic,27.03%,,
COc1ccc([C@H]2c3c([nH]n(-c4ccccc4)c3=O)N[C@@H](c3ccc(OC)cc3)C23C(=O)N(c2ccccc2)N=C3N)cc1 (stereo partly drawn),Dose-dependent effect,Non-Toxic,26.54%,,
COc1cc(/C=C/C(=O)CC(=O)/C=C/c2ccc(O)c(OC)c2)ccc1O [CURCUMIN],,,,80.7%,
NC1=NN(c2ccccc2)C(=O)C12[C@@H](c1cccc(Br)c1)c1c([nH]n(-c3ccccc3)c1=O)N[C@H]2c1cccc(Br)c1 (stereo in doubt; 3c-2) [listing 1 of 2 here],Dose-dependent effect,,,,
NC1=NN(c2ccccc2)C(=O)C12[C@@H](c1ccccc1[N+](=O)[O-])c1c([nH]n(-c3ccccc3)c1=O)N[C@H]2c1ccccc1[N+](=O)[O-] (stereo partly drawn),Dose-dependent effect,Non-Toxic,20.21%,,
NC1=NN(c2ccccc2)C(=O)C12[C@@H](c1cccs1)c1c([nH]n(-c3ccccc3)c1=O)N[C@H]2c1cccs1 (stereo partly drawn),Dose-dependent effect,Non-Toxic,18.43%,,
NC1=NN(c2ccccc2)C(=O)C12[C@@H](c1cccc(Br)c1)c1c([nH]n(-c3ccccc3)c1=O)N[C@H]2c1cccc(Br)c1 (stereo in doubt; 3c-1) [listing 1 of 2 here],,Non-Toxic,30.11%,,
NC1=NN(c2ccccc2)C(=O)C12[C@@H](c1cccc([N+](=O)[O-])c1)c1c([nH]n(-c3ccccc3)c1=O)N[C@H]2c1cccc([N+](=O)[O-])c1 (stereo partly drawn),Dose-dependent effect,Non-Toxic,22.81%,,
NC1=NN(c2ccccc2)C(=O)C12[C@@H](c1cccc(Br)c1)c1c([nH]n(-c3ccccc3)c1=O)N[C@H]2c1cccc(Br)c1 (stereo in doubt; 3c-2) [listing 2 of 2 here],,,33.52%,,
Cc1ccc([C@H]2c3c([nH]n(-c4ccccc4)c3=O)N[C@@H](c3ccc(C)cc3)C23C(=O)N(c2ccccc2)N=C3N)cc1 (stereo partly drawn),Dose-dependent effect,Non-Toxic,28.66%,,
NC1=NN(c2ccccc2)C(=O)C12[C@@H](c1cccc(Br)c1)c1c([nH]n(-c3ccccc3)c1=O)N[C@H]2c1cccc(Br)c1 (stereo in doubt; 3c-1) [listing 2 of 2 here],Dose-dependent effect,,,,
NC1=NN(c2ccccc2)C(=O)C12[C@@H](c1ccc(Cl)cc1)c1c([nH]n(-c3ccccc3)c1=O)N[C@H]2c1ccc(Cl)cc1 (stereo partly drawn),Dose-dependent effect,Non-Toxic,20.05%,,84.9%
